Values of other authors, collected in PMC11881559 (Antimicrobial Agents and Chemotherapy, 2025).

How the values were obtained:
[1] = system: Delta variant of the novel coronavirus; details: K18-hACE2 mice infected with Delta variant, 300 mg/kg/day; cited from earlier work
[2] = system: SARS-CoV-2 variants, including the wild-type, Alpha, Beta, Delta, and Omicron strains; details: cited from earlier work

Compound: O=C(NC1CCCC1)C(=O)[C@H](C[C@@H]1CCNC1=O)NC(=O)[C@@H]1[C@H]2CCC[C@H]2CN1C(=O)[C@@H](NC(=O)C(F)(F)F)C1CCCCC1 [RAY1216, leritrelvir]
- lung viral titers and virus-induced pathology [1]: significantly decreased lung viral titers and reduced virus-induced pathology
- inhibition of SARS-CoV-2 variants in vitro [2]: clearly inhibited
